In brackets after ≈: the same amount, converted by molar mass. Read-outs that look alike come from different tables or passages of the source.
What was measured:
Format in all cases: cell-based
H.pylori ATCC 51652 = assay: Agar Dilution Method, MIC against H.pylori ATCC 51652; conditions: Helicobacter pylori, ATCC51652, 72 h, read-out: minimum inhibitory concentrations (MIC)
Description: (§1) Activity against strains of Helicobacter pylori is determined according to the Agar Dilution Method, using Mueller Hinton agar, supplementet with >2 week old horse blood (5% v/v), incubation at 35° C. for 3 days in a gas system-generated microaerobic atmosphere according to NCCLS recommendations, such as disclosed e.g. in “Methods for dilution antimicrobial susceptibility tests for bacteria that grow aerobically ”—Fourth edition; approved standard. M7-A4 Vol. 17 No. 2 (1997) and M100-S9 Vol. 19 No. 1 (1999).
(§2) Activity of TEST COMPOUNDS (TCs) against H.pylori strains ATCC 43504, 43526, 43629, 49503 and 51652 is determined according to the Agar Dilution Method, using Mueller Hinton agar, supplementet with >2 week old horse blood (5% v/v), incubation at 35° C. for 3 days in a gas system-generated microaerobic atmosphere according to NCCLS recommendations, such as disclosed in “Methods for dilution antimicrobial susceptibility tests for bacteria that grow aerobically “—Fourth edition; approved standard. M7-A4 Vol. 17 No. 2 (1997) and M100-S9 Vol. 19 No. 1(1999).

H.pylori ATCC 43504 = assay: Agar Dilution Method, MIC against H.pylori ATCC 43504; conditions: Helicobacter pylori, ATCC43504, 72 h, read-out: minimum inhibitory concentrations (MIC)
Description: as §1, §2

H.pylori ATCC 49503 = assay: Agar Dilution Method, MIC against H.pylori ATCC 49503; conditions: Helicobacter pylori, ATCC49503, 72 h, read-out: minimum inhibitory concentrations (MIC)
Description: as §1, §2

H.pylori ATCC 43526 = assay: Agar Dilution Method, MIC against H.pylori ATCC 43526; conditions: Helicobacter pylori, ATCC43526, 72 h, read-out: minimum inhibitory concentrations (MIC)
Description: as §1, §2

H.pylori ATCC 43629 = assay: Agar Dilution Method, MIC against H.pylori ATCC 43629; conditions: Helicobacter pylori, ATCC43629, 72 h, read-out: minimum inhibitory concentrations (MIC)
Description: as §1, §2

[1] = H.pylori/51652, Mueller Hinton agar, 5% horse blood, 35° C., 3 days, microaerobic
[2] = H.pylori/43504, Mueller Hinton agar, 5% horse blood, 35° C., 3 days, microaerobic
[3] = H.pylori/49503, Mueller Hinton agar, 5% horse blood, 35° C., 3 days, microaerobic
[4] = H.pylori/43526, Mueller Hinton agar, 5% horse blood, 35° C., 3 days, microaerobic
[5] = H.pylori/43629, Mueller Hinton agar, 5% horse blood, 35° C., 3 days, microaerobic

MIC (H.pylori ATCC 51652; [1]) | MIC (H.pylori ATCC 43504; [2]) | MIC (H.pylori ATCC 49503; [3]) | MIC (H.pylori ATCC 43526; [4]) | MIC (H.pylori ATCC 43629; [5]) | SMILES | MIC (H.pylori ATCC 51652) | MIC (H.pylori ATCC 43504) | MIC (H.pylori ATCC 49503) | MIC (H.pylori ATCC 43526) | MIC (H.pylori ATCC 43629)
0.025 µg/mL (≈ 0.0433 µM) | 0.025 µg/mL (≈ 0.0433 µM) | 0.025 µg/mL (≈ 0.0433 µM) | 0.05 µg/mL (≈ 0.0867 µM) | < 0.0125 µg/mL | C=C[C@]1(C)C[C@@H](OC(=O)CSC2CCCN(C(=O)C(N)C(C)C)C2)[C@]2(C)C(C)CCC3(CCC(=O)C32)[C@@H](C)C1O (some centres unmarked) [TC-III] | – | – | – | – | –
– | – | – | – | – | CN(C)[C@@H]1C(O)=C(C(N)=O)C(=O)[C@@]2(O)C(O)=C3C(=O)c4c(O)cccc4[C@@](C)(O)[C@H]3C[C@@H]12 [TEC, tetracycline] | 0.2 µg/mL (≈ 0.45 µM) | 0.4 µg/mL (≈ 0.9 µM) | 0.2 µg/mL (≈ 0.45 µM) | 0.4 µg/mL (≈ 0.9 µM) | 0.4 µg/mL (≈ 0.9 µM)
0.025 µg/mL (≈ 0.0419 µM) | < 0.0125 µg/mL | 0.025 µg/mL (≈ 0.0419 µM) | 0.05 µg/mL (≈ 0.0838 µM) | < 0.0125 µg/mL | C=C[C@]1(C)C[C@@H](OC(=O)CSc2cccc(NC(=O)[C@@H]3CCCCN3)c2)[C@]2(C)C(C)CCC3(CCC(=O)C32)[C@@H](C)C1O (some centres unmarked) [TC-II] | – | – | – | – | –
0.025 µg/mL (≈ 0.0443 µM) | 0.025 µg/mL (≈ 0.0443 µM) | < 0.0125 µg/mL | 0.05 µg/mL (≈ 0.0885 µM) | < 0.0125 µg/mL | C=C[C@]1(C)C[C@@H](OC(=O)CSC(C)(C)CNC(=O)[C@H](N)C(C)C)[C@]2(C)[C@H](C)CC[C@]3(CCC(=O)[C@H]32)[C@@H](C)[C@@H]1O [TC-I, Valnemulin] | – | – | – | – | –
